Experimental data published in PMC9699003, “Arene Variation of Highly Cytotoxic Tridentate Naphthoquinone-Based Ruthenium(II) Complexes and In-Depth In Vitro Studies” (Pharmaceutics, 2022).

Assays:
SW480 cells [1] = assay: Colony formation assay; format: cell-based, human; details: SW480, 11 days, relative to untreated control
Method: For the colony formation assay, SW480 cells were seeded at a density of 350 cells/2 mL into each well of 6-well plates (CytoOne, tissue culture treated) and left to adhere for 24 h. To determine the long-term effects of the test compounds, the cells were exposed to them for 11 days at 37 °C and 5% CO2. After incubation, the wells were gently washed with 1 mL cold PBS and the colonies were fixed with 1 mL cold (4 °C) 100% methanol (Thermo Fisher, Waltham, MA, USA) for 30 min at 4 °C and washed with 1 mL PBS again. The fixed colonies were stained with 1 mL of 0.5% w/v crystal violet (Sigma-Aldrich) in methanol for 2 min and the plates were washed under tap water. After drying the plates, images of the wells were captured, and colonies were counted with the colony counting function of Fusion Fx7 software (Vilber Lourmat, Collégien, France). Results were normalized to untreated controls. Data are averaged from at least three independent experiments.

CH1/PA-1 cells = assay: Cell cycle distribution (PI staining, flow cytometry); format: cell-based, human; details: CH1/PA-1, 24 h
Method: (§1) For the flow-cytometric determination of cell cycle distribution, CH1/PA-1 (8 × 10^4 cells/well) and SW480 (1.2 × 10^5 cells/well) cells were seeded into 12-well plates (CytoOne, tissue culture treated) in 1 mL supplemented MEM. In the first 24 h, the cells were allowed to settle and resume exponential growth. […] Gemcitabine (Sigma-Aldrich, 0.01 and 0.05 µM) and etoposide (Sigma-Aldrich, 0.25, 0.5 and 1 µM) were used as positive controls. After removal of the treatment medium, cells were washed with 1 mL PBS and trypsinized. Cells were collected in Eppendorf tubes and centrifuged (300 g, 3 min), and the supernatant was discarded. In the following step, cells were washed with 1 mL PBS and resuspended in 500 µL PI/HFS buffer (0.1% v/v Triton X-100, 0.1% w/v sodium citrate, in PBS) containing 25 µg/mL propidium iodide (PI, 1.0 mg/mL, Sigma-Aldrich). The staining was carried out overnight at 4 °C in the dark, and 200 µL of the cell suspension was loaded into 96-well round bottom plates (Falcon). Samples were measured with a Millipore Guava easyCyte 8HT flow cytometer with GuavaSoft™ software in the InCyte-modus, and 10,000 events/sample were detected. Data were analyzed with FlowJo software v 10.8.1 (Tree Star, Ashland, OR, USA) using Watson algorithm. Percentages of cells in the three cell cycle phases (G1/G0, S and G2/M) were calculated by integrating the resulting histograms of fluorescence signals (Figures S29 and S30). Experiments were repeated at least three times. For statistical evaluation, an unpaired t-test with Welch’s correction was performed by using GraphPad PRISM software.

SW480 cells [2] = assay: as above; format: cell-based, human; details: SW480, 24 h
Method: as §1

NQO1 (SW480 cells) = molecular target: T1, NQO1 (SW480 cells) (Homo sapiens, UniProt P15559); assay: NQO1 activity assay in cell extracts after treatment; format: cell-based; details: SW480, 24 h treatment
T1 construct: impact on NQO1 activity in SW480 (left panel) and CH1/PA-1 (right panel) cell extracts after treatment; endogenous in cells; host or cells: SW480 colon carcinoma cells (ATCC)
Method: To determine NQO1 activity, SW480 and CH1/PA-1 cells were seeded into 6-well plates in densities of 2 × 10^5 cells/well in 2 mL supplemented MEM. […] The test substances were dissolved in DMSO/medium. To exclude that assay validity was compromised by the use of DMSO, cells treated with DMSO alone (at concentrations corresponding to those in substance solutions) were measured in parallel. After 24 h drug exposure, the medium was aspirated, and the cells were gently washed twice with PBS. The further steps were performed following the manual instructions of the NQO1 activity assay kit (ab184867, abcam, Cambridge, UK). Protease inhibitor phenylmethylsulfonyl fluoride (PMSF, Merck, Darmstadt, Germany) and phosphatase inhibitor PhosSTOP^TM (Roche, Basel, Switzerland) were applied. For determining the protein concentration, the Micro BCA^TM protein assay (prod # 23235, Thermo Scientific) kit was used. For NQO1 activity determination, 100 µg/mL of total protein was loaded. The development of yellow color was monitored for 5 min in 20-sec intervals with a microplate reader (BioTek ELx808) at 450 nm. The measured data were evaluated according to the instructions of the NQO1 activity assay kit: “NQO1 activity was calculated by subtracting the OD value with Inhibitor from the one without Inhibitor. The activity is expressed as the change in absorbance per minute per amount of sample loaded into the well” [30]. Data are expressed as rates of increase of mean absorbance ± SDs from three independent experiments.

[3] = test system: A549 non-small cell lung cancer cells; details: A549, MTT, 96 h exposure; cited from earlier work
[4] = test system: SW480 colon carcinoma cells; details: SW480, MTT, 96 h exposure; cited from earlier work
[5] = test system: CH1/PA-1 ovarian teratocarcinoma cells; details: CH1/PA-1, MTT, 96 h exposure; cited from earlier work
pUC19 plasmid = assay: DNA interaction assay (dsDNA plasmid, agarose gel electrophoresis); format: biochemical; details: 50 µM, 37 °C, after 6 h of incubation; control after 6 h 3.6 ± 0.7%
Method: The incubation was performed at 37 °C for different time intervals (15 min to 6 h) with continuous shaking. Additionally, 4 µL aliquots of a 6× DNA loading dye (Thermo Fisher) were added to the 20 µL reaction solution, and the DNA samples were separated in a 1% agarose gel in 1 × Tris-Borate-EDTA (TBE) buffer. Electrophoresis was initiated at 60 V for 5 min and continued at 120 V for 90 min in 1 × TBE buffer. For visualization of the DNA modification degree, the agarose gel was stained with ethidium bromide (EtBr) in 1 × TBE (0.75 µg/mL) for 20 min.

T1 sequence (P15559 whole entry): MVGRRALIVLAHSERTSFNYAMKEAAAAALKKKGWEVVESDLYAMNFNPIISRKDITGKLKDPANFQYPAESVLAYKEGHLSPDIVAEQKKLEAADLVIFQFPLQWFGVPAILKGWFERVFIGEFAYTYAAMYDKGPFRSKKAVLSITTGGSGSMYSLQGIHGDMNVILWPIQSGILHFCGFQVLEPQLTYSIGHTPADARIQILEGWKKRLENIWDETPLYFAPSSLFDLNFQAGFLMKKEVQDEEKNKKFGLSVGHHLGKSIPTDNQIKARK

CC1=C([O-])C([O-])(n2cccn2)c2ccccc2C1=O.Cc1ccc(C(C)C)cc1.[Ru+2] (racemic) [Compound 1]
Number of colonies (SW480 cells [1]; 0.039 µM): 18 ± 5% | Number of colonies (SW480 cells [1]; 0.078 µM): 3.1 ± 0.8% | Number of colonies (SW480 cells [1]; 0.16 µM): 0.26 ± 0.43% | Cells in G1/G0 phase (CH1/PA-1 cells; 50 µM): 18.7 ± 1.7% | Cells in G2/M phase (CH1/PA-1 cells; 50 µM): 48.2 ± 5.5% | Cells in S phase (CH1/PA-1 cells; 50 µM): 39.2 ± 8.7% | Cells in G1/G0 phase (CH1/PA-1 cells; 100 µM): 19.8 ± 2.1% | Cells in G2/M phase (CH1/PA-1 cells; 100 µM): 40.9 ± 4.0% | Cells in S phase (CH1/PA-1 cells; 100 µM): 45.8 ± 3.8% | Cells in G1/G0 phase (CH1/PA-1 cells; 150 µM): 20.0 ± 1.3% | Cells in G2/M phase (CH1/PA-1 cells; 150 µM): 31.0 ± 3.2% | Cells in S phase (CH1/PA-1 cells; 150 µM): 52.9 ± 1.9% | Increase of S phase fraction relative to untreated control (CH1/PA-1 cells; concentration-dependent): up to 11% | Cells in G1/G0 phase (SW480 cells [2]; 0.039 µM): 23.8 ± 6.1% | Cells in G2/M phase (SW480 cells [2]; 0.039 µM): 37.2 ± 2.3% | Cells in S phase (SW480 cells [2]; 0.039 µM): 40.0 ± 2.1% | Cells in G1/G0 phase (SW480 cells [2]; 0.078 µM): 15.4 ± 1.2% | Cells in G2/M phase (SW480 cells [2]; 0.078 µM): 34.5 ± 2.1% | Cells in S phase (SW480 cells [2]; 0.078 µM): 53.4 ± 1.1% | Cells in G1/G0 phase (SW480 cells [2]; 0.16 µM): 25.0 ± 8.2% | Cells in G2/M phase (SW480 cells [2]; 0.16 µM): 22.5 ± 4.3% | Cells in S phase (SW480 cells [2]; 0.16 µM): 56.2 ± 8.4% | Effect on NQO1 activity (in words) (NQO1 (SW480 cells); 0.1 µM and 1 µM, compared to untreated control): negligible effects | Effect on NQO1 activity (in words) (NQO1 (SW480 cells); 10 µM): lowered NQO1 activity tremendously | IC50 [3]: 1.2 ± 0.2 µM | IC50 [4]: 0.094 ± 0.031 µM | IC50 [5]: > 50 µM

CC1=C([O-])C([O-])(n2cccn2)c2ccccc2C1=O.[Ru+2].c1ccccc1 (racemic) [Compound 2]
Number of colonies (SW480 cells [1]; 5 µM): 48 ± 9% | Number of colonies (SW480 cells [1]; 10 µM): 20 ± 4% | Number of colonies (SW480 cells [1]; 20 µM): 3.5 ± 1.5% | Cells in G1/G0 phase (CH1/PA-1 cells; 100 µM): 29.9 ± 5.7% | Cells in G2/M phase (CH1/PA-1 cells; 100 µM): 37.0 ± 6.1% | Cells in S phase (CH1/PA-1 cells; 100 µM): 39.9 ± 1.4% | Cells in G1/G0 phase (CH1/PA-1 cells; 150 µM): 30.8 ± 7.1% | Cells in G2/M phase (CH1/PA-1 cells; 150 µM): 38.3 ± 5.3% | Cells in S phase (CH1/PA-1 cells; 150 µM): 36.5 ± 3.3% | Cells in G1/G0 phase (CH1/PA-1 cells; 200 µM): 29.7 ± 8.5% | Cells in G2/M phase (CH1/PA-1 cells; 200 µM): 33.0 ± 3.0% | Cells in S phase (CH1/PA-1 cells; 200 µM): 39.1 ± 0.8% | Cells in G1/G0 phase (SW480 cells [2]; 5 µM): 36.0 ± 6.7% | Cells in G2/M phase (SW480 cells [2]; 5 µM): 32.0 ± 2.6% | Cells in S phase (SW480 cells [2]; 5 µM): 34.2 ± 3.8% | Cells in G1/G0 phase (SW480 cells [2]; 10 µM): 22.6 ± 5.7% | Cells in G2/M phase (SW480 cells [2]; 10 µM): 40.9 ± 4.2% | Cells in S phase (SW480 cells [2]; 10 µM): 38.8 ± 7.9% | Cells in G1/G0 phase (SW480 cells [2]; 20 µM): 22.3 ± 6.3% | Cells in G2/M phase (SW480 cells [2]; 20 µM): 27.9 ± 9.0% | Cells in S phase (SW480 cells [2]; 20 µM): 52.1 ± 3.3% | open circular (oc) form of pUC19 (single-strand breaks) (pUC19 plasmid): 11.8 ± 0.9%

CC1=C(O)C(=O)c2ccccc2C1=O [L, 2-Hydroxy-3-methyl-1,4-naphthoquinone]
Number of colonies (SW480 cells [1]; 50 µM): 62 ± 25% | Number of colonies (SW480 cells [1]; 150 µM): 0 ± 0% | Cells in G1/G0 phase (CH1/PA-1 cells; 100 µM): 37.0 ± 0.3% | Cells in G2/M phase (CH1/PA-1 cells; 100 µM): 22.9 ± 2.8% | Cells in S phase (CH1/PA-1 cells; 100 µM): 41.4 ± 2.4% | Cells in G1/G0 phase (CH1/PA-1 cells; 150 µM): 40.8 ±1.7% | Cells in G2/M phase (CH1/PA-1 cells; 150 µM): 19.3 ± 1.9% | Cells in S phase (CH1/PA-1 cells; 150 µM): 42.1 ± 2.7% | Cells in G1/G0 phase (CH1/PA-1 cells; 200 µM): 47.2 ± 1.7% | Cells in G2/M phase (CH1/PA-1 cells; 200 µM): 16.8 ± 8.9% | Cells in S phase (CH1/PA-1 cells; 200 µM): 37.6 ± 3.5% | Cells in G1/G0 phase (SW480 cells [2]; 50 µM): 47.4 ± 2.0% | Cells in G2/M phase (SW480 cells [2]; 50 µM): 14.5 ± 0.5% | Cells in S phase (SW480 cells [2]; 50 µM): 38.8 ± 1.7% | Cells in G1/G0 phase (SW480 cells [2]; 100 µM): 51.5 ± 5.0% | Cells in G2/M phase (SW480 cells [2]; 100 µM): 12.1 ± 0.4% | Cells in S phase (SW480 cells [2]; 100 µM): 35.9 ± 3.4% | Cells in G1/G0 phase (SW480 cells [2]; 150 µM): 52.0 ± 2.9% | Cells in G2/M phase (SW480 cells [2]; 150 µM): 11.3 ± 0.5% | Cells in S phase (SW480 cells [2]; 150 µM): 36.3 ± 2.2% | Cell cycle perturbation (in words) (SW480 cells [2]; tested concentrations): did not show any cell cycle perturbation | Effect on NQO1 activity (in words) (NQO1 (SW480 cells); 10 µM): moderately inhibited | IC50 [3]: 210 ± 32 µM | IC50 [4]: 116 ± 37 µM | IC50 [5]: 129 ± 29 µM
